Reference: patent US11976083B2, “Inhibitors of peptidylarginine deiminases” (Gilead Sciences, Inc., priority 2020, dated 2024)

Biological target: T1, human PAD4 (Homo sapiens, UniProt Q9UM07)
T1 construct: human PAD4 (NM_012387), A2-P663, was PCR amplified; His-SUMO (N, cleaved yes); made in house; host or cells: E. coli BL21(DE3)
Assay: In vitro PAD4 BAEE biochemical assay
Conditions: BAEE substrate 3 mM, 5 nM PAD4, 2 mM calcium chloride; geometric mean of multiple experiments
Procedure, shortened: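 Assay was run at 25 °C using 3 mM BAEE and 5 nM human PAD4 after a 30 min compound preincubation; ammonia produced over 2 h was quantified by OPA-derived fluorescence. Full inhibition was defined by 50 µM BB-Cl-Amidine, and IC50 came from variable-slope nonlinear regression.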

T1 sequence (Q9UM07 2-663): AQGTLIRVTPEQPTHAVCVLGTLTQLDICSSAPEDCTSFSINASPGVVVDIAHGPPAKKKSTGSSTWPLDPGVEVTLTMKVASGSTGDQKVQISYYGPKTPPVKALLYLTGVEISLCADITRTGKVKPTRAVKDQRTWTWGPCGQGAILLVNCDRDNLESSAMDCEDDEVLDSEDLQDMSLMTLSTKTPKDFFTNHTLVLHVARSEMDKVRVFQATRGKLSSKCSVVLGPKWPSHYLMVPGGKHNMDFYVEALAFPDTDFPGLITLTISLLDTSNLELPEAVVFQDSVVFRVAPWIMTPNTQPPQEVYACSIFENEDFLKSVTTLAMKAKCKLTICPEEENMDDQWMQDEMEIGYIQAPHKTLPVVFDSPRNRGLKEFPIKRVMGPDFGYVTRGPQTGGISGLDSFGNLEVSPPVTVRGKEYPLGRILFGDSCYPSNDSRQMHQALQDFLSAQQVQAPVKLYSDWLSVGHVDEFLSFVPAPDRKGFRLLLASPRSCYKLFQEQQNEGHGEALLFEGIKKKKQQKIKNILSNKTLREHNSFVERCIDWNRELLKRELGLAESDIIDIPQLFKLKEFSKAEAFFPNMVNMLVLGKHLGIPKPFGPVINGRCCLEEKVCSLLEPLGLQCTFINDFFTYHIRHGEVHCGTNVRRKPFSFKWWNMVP

Structure (SMILES) | IC50 [nM]
C[C@H]1NC(=O)[C@@H]2C[C@H]2CCCCCn2c(-c3nc4cc(C(=O)N5[C@H]6CC[C@@H]5[C@H](N)C6)cnc4n3C)cc3ccc1nc32 [Example 563, (2~{R},5~{R},7~{R})-14-[6-[(1~{R},2~{R},4~ {S})-2-amino-7-azabicyclo [2.2.1]heptane-7-carbonyl]-3-methyl-imidazo[4,5-b]pyridin-2-yl]-2-methyl-3,13,19-triazatetracyclo [11.5.2.0^{5,7}.0^{16,20}] icosa-1(19),14,16(20), 17-tetraen-4-one] | 26
C[C@H]1NC(=O)[C@@H]2C[C@H]2CCCCCn2c(-c3nc4cc(C(=O)N[C@H]5CNCC[C@@H]5F)c(F)cc4n3C)cc3ccc1cc32 [Example 564, 6-fluoro-~{N}-[(3~{S},4~ {S})-4-fluoro-3-piperidyl]-1-methyl-2-[(2~{R},5~ {R},7~{R})-2-methyl-4-oxo-3,13-diazatetracyclo [11.5.2.0^{5,7}.0^{16,20}]icosa-1(19),14,16(20), 17-tetraen-14-yl] benzimidazole-5-carboxamide] | 24
C[C@H]1NC(=O)C(C)(C)CCCCCCn2c(-c3nc4cc(C(=O)N[C@H]5CNCC[C@@H]5F)c(F)cc4n3C)cc3ccc1cc32 [Example 565, 6-fluoro-~{N}-[(3~{S}, 4~{S})-4-fluoro-3-piperidyl]-1-methyl-2-[(11~{R})-8,8,11-trimethyl-9-oxo-1,10-diazatricyclo[10.5.2.0^ {15,18}]nonadeca-12(19),13,15(18),16-tetraen-17-yl] benzimidazole-5-carboxamide] | 41
C[C@H]1NC(=O)[C@@H]2CC2CCCC(F)(F)Cn2c(-c3nc4cc(C(=O)N5C[C@H]6CC[C@@H]5[C@@H]6N)c(F)c(F)c4n3C)cc3ccc1nc32 (stereo partly drawn) [Example 566, (2~{R},5~{R},7~{R})-14-[5-[(1~{R},4~{R},7~{R})-7-amino-2-azabicyclo [2.2.1]heptane-2-carbonyl]-6,7-difluoro-1-methyl-benzimidazol-2-yl]-11,11-difluoro-2-methyl-3,13,19-triazatetracyclo[11.5.2.0^ {5,7).0^{16,20}]icosa-1(19),14,16(20),17-tetraen-4-one] | 97
C[C@H]1NC(=O)[C@@H]2C[C@H]2CCCCCn2c(-c3nc4cc(C(=O)N[C@@H]5CCCNC5)c(F)cc4n3C3CC3)cc3ccc1nc32 [Example 568, 1-cyclopropyl-6-fluoro-2-[(2~{R},5~{R},7~{R})-2-methyl-4-oxo-3,13,19-triazatetracyclo[11.5.2.0^ {5,7}.0^{16,20}]icosa-1(19), 14,16(20),17-tetraen-14-yl]- ~{N}-[(3~{R})-3-piperidyl]benzimidazole-5-carboxamide11,11-difluoro-2-methyl-4-oxo-3,13,19-] | 33
C[C@H]1NC(=O)[C@@H]2C[C@H]2CCCCCn2c(-c3nc4cc(C(=O)N5CC6(CCCNC6)C5)c(F)cc4n3C3CC3)cc3ccc1nc32 [Example 569, (2~{R},5~{R},7~{R})-14-[1-cyclopropyl-5-(2,8-diazaspiro[3.5]nonane-2-carbonyl)-6-fluoro-benzimidazol-2-yl]-2-methyl-3,13,19-triazatetracyclo [11.5.2.0^{5,7}.0^ {16,20}]icosa-1(19),14, 16(20),17-tetraen-4-one] | 109
COc1cc(C(=O)N2CC[C@@H](OC)[C@@H](N)C2)cc2nc(-c3cc4ccc5nc4n3CCCCCc3nn(C)nc3C(=O)N[C@@H]5C)n(C)c12 [Example 570, (2~{R})-16-[5-[(3~{S}, 4~{R})-3-amino-4-methoxy-piperidine-1-carbonyl]-7-methoxy-1-methyl-benzimidazol-2-yl]-2,7-dimethyl-3,6,7,8,15,21-hexazatetracyclo[13.5.2.0^ {5,9}.0^{18,22}] docosa-1(21),5,8,16,18(22), 19-hexaen-4-one] | 94
C[C@H]1NC(=O)[C@@H]2C[C@H]2CCCCCn2c(-c3nc4cc(C(=O)N[C@H]5CNCC[C@@H]5F)c(F)cc4n3C3CC34CC4)cc3ccc1nc32 (stereo partly drawn) [Example 571, 6-fluoro-~{N}-[(3~ {S},4~{S})-4-fluoro-3-piperidyl]-2-[(2~{R}, 5~{R},7~{R})-2-methyl-4-oxo-3,13,19-triazatetracyclo[11.5.2.0^ {5,7}.0^{16,20}]icosa-1(19),14,16(20),17-tetraen-14-yl]-1-spiro [2.2]pentan-2-yl-benzimidazole-5-carboxamide] | 31
CO[C@@H]1CCN(C(=O)c2cc3nc(-c4cc5ccc6nc5n4CCCCC[C@@H]4C[C@H]4C(=O)N[C@@H]6C)n(C4CC4)c3cc2F)C[C@@H]1N [Example 572, (2~{R},5~{R},7~{R})-14-[5-[(3~{S},4~{R})-3-amino-4-methoxy-piperidine-1-carbonyl]-1-cyclopropyl-6-fluoro-benzimidazol-2-yl]-2-methyl-3,13,19-triazatetracyclo [11.5.2.0^{5,7}.0^{16,20}] icosa-1(19),14,16(20), 17-tetraen-4-one] | 53
C[C@H]1NC(=O)[C@@H]2C[C@H]2CCCCCn2c(-c3nc4cc(C(=O)N[C@H]5CNCC[C@@H]5F)cnc4n3C3CC3)cc3ccc1nc32 [Example 573, 3-cyclopropyl-~{N}-[(3~ {S},4~{S})-4-fluoro-3-piperidyl]-2-[(2~{R},5~ {R},7~{R})-2-methyl-4-oxo-3,13,19-triazatetracyclo [11.5.2.0^{5,7}.0^{16,20}]icosa-1(19),14,16(20), 17-tetraen-14-yl]imidazo [4,5-b]pyridine-6-carboxamide] | 23
CO[C@@H]1CCN(C(=O)c2cnc3c(c2)nc(-c2cc4ccc5nc4n2CCCCC[C@@H]2C[C@H]2C(=O)N[C@@H]5C)n3C2CC2)C[C@@H]1N [Example 574, (2~{R},5~{R},7~{R})-14-[6-[(3~{S},4~{R})-3-amino-4-methoxy-piperidine-1-carbonyl]-3-cyclopropyl-imidazo [4,5-b]pyridin-2-yl]-2-methyl-3,13,19-triazatetracyclo [11.5.2.0^{5,7}.0^{16,20}] icosa-1(19),14,16(20),17-tetraen-4-one] | 117
C[C@H]1NC(=O)[C@@H]2C[C@H]2CCCCCn2c(-c3nc4cc(C(=O)N[C@H]5CNC[C@H]6C[C@H]65)c(F)cc4n3C3CC3)cc3ccc1nc32 [Example 575, ~{N}-[(1~{S),5~{R},6~{R})-3-azabicyclo[4.1.0]heptan-5-yl]-1-cyclopropyl-6-fluoro-2-[(2~{R},5~{R},7~{R})-2-methyl-4-oxo-3,13,19-triazatetracyclo[11.5.2.0^ {5,7}.0^{16,20}]icosa-1(19),14,16(20),17-tetraen-14-yl]benzimidazole-5-carboxamide] | 26
COc1cc(C(=O)N2CC[C@@H](OC)[C@@H](N)C2)cc2nc(-c3cc4ccc5cc4n3CCCCCc3nccnc3C(=O)N[C@@H]5C)n(C)c12 [Example 576, (2~{R})-17-[5-[(3~{S},4~ {R})-3-amino-4-methoxy-piperidine-1-carbonyl]-7-methoxy-1-methyl-benzimidazol-2-yl]-2-methyl-3,6,9,16-tetrazatetracyclo[14.5.2.0^ {5,10}.0^{19,23}] tricosa-1(22),5(10),6,8,17, 19(23),20-heptaen-4-one] | 68
COc1cc(C(=O)N2CC[C@@H](OC(F)F)[C@@H](N)C2)cc2nc(-c3cc4ccc5cc4n3CCCCCc3nccnc3C(=O)N[C@@H]5C)n(C)c12 [Example 577, (2~{R})-17-[5-[(3~{S),4~{R})-3-amino-4-(difluoromethoxy)piperidine-1-carbonyl]-7-methoxy-1-methyl-benzimidazol-2-yl]-2-methyl-3,6,9,16-tetrazatetracyclo [14.5.2.0^{5,10}.0^{19, 23}]tricosa-1(22),5(10), 6,8,17,19(23),20-heptaen-4-one] | 84
CO[C@@H]1CCN(C(=O)c2cc(F)c3c(c2)nc(-c2cc4ccc5nc4n2CCCCCc2nccnc2C(=O)N[C@@H]5C)n3C2CC2)C[C@@H]1N [Example 578, (2~{R})-17-[5-[(3~{S},4~ {R})-3-amino-4-methoxy-piperidine-1-carbonyl]-1-cyclopropyl-7-fluoro-benzimidazol-2-yl]-2-methyl-3,6,9,16,22-pentazatetracyclo[14.5.2.0^ {5,10}.0^{19,23}] tricosa-1(22),5(10),6,8,17, 19(23),20-heptaen-4-one] | 78
CO[C@@H]1CCN(C(=O)c2cc(F)c3c(c2)nc(-c2cc4ccc5nc4n2CCCCCC2C[C@H]2C(=O)N[C@@H]5C)n3C2CC2)C[C@@H]1N (stereo partly drawn) [Example 579, (2~{R},5~{R},7~{R})-14-[5-[(3~{S),4~{R})-3-amino-4-methoxy-piperidine-1-carbonyl]-1-cyclopropyl-7-fluoro-benzimidazol-2-yl]-2-methyl-3,13,19-triazatetracyclo [11.5.2.0^{5,7}.0^{16,20}] icosa-1(19),14,16(20), 17-tetraen-4-one] | 50
C[C@H]1NC(=O)[C@@H]2C[C@H]2CCCCCn2c(-c3nc4cc(C(=O)N[C@H]5CNCC[C@@H]5F)c(F)cn4c3C3CC3)cc3ccc1nc32 [Example 580, 3-cyclopropyl-6-fluoro-~ {N}-[(3~{S},4~{S})-4-fluoro-3-piperidyl]-2-[(2~{R},5~{R},7~{R})-2-methyl-4-oxo-3,13,19-triazatetracyclo[11.5.2.0^ {5,7}.0^{16,20}]icosa-1(19),14,16(20),17-tetraen-14-yl]imidazo[1,2-a] pyridine-7-carboxamide] | 24
COc1cc(C(=O)N2[C@H]3CC[C@@H]2[C@H](N)[C@H](OC(F)F)C3)cc2nc(-c3cc4ccc5nc4n3CCCCC[C@@H]3C[C@H]3C(=O)N[C@@H]5C)n(C)c12 [Example 581, (2~{R},5~{R},7~{R})-14-[5-[(1~{R},2~{S},3~ {R},5~{S})-2-amino-3-(difluoromethoxy)-8-azabicyclo[3.2.1]octane-8-carbonyl]-7-methoxy-1-methyl-benzimidazol-2-yl]-2-methyl-3,13,19-triazatetracyclo[11.5.2.0^ {5,7}.0^{16,20}]icosa-1(19), 14,16(20),17-tetraen-4-one] | 176
